Patent publication US8357798B2, “Process for preparing N-alkylated hydroxypyrimidinone compounds” (Merck Sharp & Dohme Corp., priority 2004, dated 2013)
Where a name gives a salt, the structure may show the parent alone.

Key:
[1] = hygroscopicity (vapor sorption analysis); type: physicochemical; settings: for weight when equilibrated back down to 5% RH: 5% RH after 95% RH; for weight increase when equilibrated at 95% RH: 95% RH at 25° C.
Procedure: Hygroscopicity data was obtained on a VTI Symmetrical Vapor Sorption Analyzer Model SGA-1. Data was collected at room temperature from 5-95% relative humidity and back, 5% relative humidity change per step. Equilibrium conditions were 0.01 weight percent change in 5 minutes with a maximum equilibration time of 180 minutes.

HIV integrase = HIV integrase (Human immunodeficiency virus type 1 group M subtype B, UniProt P04585); assay: integrase inhibition assay in which strand transfer is catalyzed by recombinant integrase; type: biochemical; settings: assay of Example 193 of WO 02/30930
Excerpt: Compound A is an inhibitor of HIV integrase. […] The strand transfer assay is described in Example 193 of WO 02/30930.

[2] = test system: acute HIV infection of T-lymphoid cells; assay: assay for the inhibition of acute HIV infection of T-lymphoid cells; type: cell-based; settings: in accordance with Vacca et al., PNAS 1994, 91: 4096-4100
solubility in water = type: physicochemical
[3] = listed as Form 1 Crystalline Potassium Salt of Compound A

For `Cc1nnc(C(=O)NC(C)(C)c2nc(C(=O)NCc3ccc(F)cc3)c(O)c(=O)n2C)o1` [listing 1 of 2 here], which “weight when equilibrated back down to 5% RH” value [1, 3] is on record?
Its value is “returned back to approximately its dry weight”.

What about the “weight increase when equilibrated at 95% RH” value [1, 3] of the same compound?
Its value is 1.8%.

And the “phase by XRPD after the hygroscopicity experiment” value ([1]; XRPD after 5-95% RH cycle)?
The value was “had not changed phases”.

With `Cc1nnc(C(=O)NC(C)(C)c2nc(C(=O)NCc3ccc(F)cc3)c(O)c(=O)n2C)o1` [listing 2 of 2 here] as the compound, how does the “weight when equilibrated back down to 5% RH” value [1] read?
Its value is “returned to its dry weight”.

What about the “weight increase when equilibrated at 95% RH” value [1] of the same compound?
Its value is 1%.

What does the source list for `Cc1nnc(C(=O)NC(C)(C)c2nc(C(=O)NCc3ccc(F)cc3)c(O)c(=O)n2C)o1` [Compound A, N-(4-fluorobenzyl)-5-hydroxy-1-methyl-2-(1-methyl-1-{[(5-methyl-1,3,4-oxadiazol-2-yl)carbonyl]amino}ethyl)-6-oxo-1,6-dihydropyrimidine-4-carboxamide]?
inhibition of integrase strand transfer (HIV integrase): potent inhibitor; inhibition of acute HIV infection of T-lymphoid cells [2]: active; solubility in water (solubility in water): limited

For `Cc1nnc(C(=O)NC(C)(C)c2nc(C(=O)NCc3ccc(F)cc3)c(O)c(=O)n2C)o1` [potassium salt of Compound A], which solubility in water (solubility in water) is on record?
The solubility in water was “comparatively quite soluble”.

What about the “solubility in water compared to the free base” value (solubility in water; relative to Compound A free base) of the same compound?
The value was “significantly more soluble”.
